Data taken from patent US20250171434A1, “SEC61 INHIBITORS AND USE THEREOF” (KEZAR LIFE SCIENCES, INC., priority 2022, published 2025).
pEC50, pIC50: −log10 of the molar value. Like-named read-outs stand apart in the source and are kept apart here.

Assays:
[1] = tested on: PD1-ss+10aa/Gaussia Luciferase; test: Dox-Induced PD1-ss-Gluc Assay; assay type: cell-based
Excerpt: Flp-In 293 T-REx™ cells were transfected with pcDNA™5/FRT/TO plasmid inserted with cDNA encoding Gaussia Luciferase fused to the 3′ end of cDNA encoding PD1 signal sequence plus 10 amino acids (N-[…]-C) (SEQ ID NO: 1). Transfected cells were selected for resistance to the selectable markers Hygromycin and Blasticidin to create a stable cell line that contained the PD1-ss+10aa/Gaussia Luciferase cDNA insert whose expression was regulated under the T-REx™ system. The day before assay, cells were trypsinized and plated in 384-well tissue culture plates. The next day, compound dilutions in DMSO/media containing doxycycline were added to the wells and incubated at 37° C., 5% CO2.
(§1) For chemical structures that include one or more stereoisomers, but are illustrated without indicating stereochemistry, the assay data refers to a mixture of stereoisomers.

[2] = tested on: IL-2-FL/Gaussia Luciferase; test: Dox Inducible IL2-FL-Gluc Assay; assay type: cell-based
Excerpt: Flp-In 293 T-REx™ cells were transfected with pcDNA™5/FRT/TO plasmid inserted with cDNA encoding Gaussia Luciferase fused to the 3′ end of cDNA encoding full length IL-2 (amino acids 1-153). Transfected cells were selected for resistance to the selectable markers Hygromycin and Blasticidin to create a stable cell line that contained the IL-2-FL/Gaussia Luciferase cDNA insert whose expression was regulated under the T-REx™ system. The day before assay, cells were trypsinized and plated in 384-well tissue culture plates. The next day, compound dilutions in DMSO/media containing doxycycline were added to the wells and incubated at 37° C., 5% CO2.
as §1

CD47(ss + 10)Gluc = test: Dox-Induced CD47-ss-Gluc Assay; assay type: cell-based
[3] = tested on: IL6R-ss+10aa/Gaussia Luciferase; test: Dox-induced IL-6R-ss-Gluc Assay; assay type: cell-based
Excerpt: Flp-In 293 T-REx™ cells were transfected with pcDNATM5/FRT/TO plasmid inserted with cDNA encoding Gaussia Luciferase fused to the 3′ end of cDNA encoding IL6R signal sequence plus 10 amino acids (N-[…]-C). Transfected cells were selected for resistance to the selectable markers Hygromycin and Blasticidin to create a stable cell line that contained the IL6R-ss+10aa/Gaussia Luciferase cDNA insert whose expression was regulated under the T-REx™ system. The day before assay, cells were trypsinized and plated in 384-well tissue culture plates. The next day, compound dilutions in DMSO/media containing doxycycline were added to the wells and incubated at 37° C., 5% CO2.
as §1

[4] = tested on: multiple myeloma cell line NCI-H929; test: H929 Cell Viability Assay; assay type: cell-based, human; conditions: for pEC50: read-out: 48 hr H929 Viability Celltiter-Glo: Mean EC50
Method: The human multiple myeloma cell line NCI-H929 was cultured in Advanced RPMI 1640 media (Gibco®) supplemented with 6% fetal bovine serum, 2 mM Glutamine, and 1× Penicillin/Streptomycin. On the day of assay, cells were resuspended in RPMI 1640 media supplemented with 10% fetal bovine serum, 2 mM Glutamine, and 1× Penicillin/Streptomycin and plated in 384-well tissue culture plates and treated with compound dilutions in DMSO/media. Plates were incubated at 37° C., 5% CO2 for 48 hours. After 48 hours, Celltiter-Glo® (Promega) was added to each well and luciferase signal was quantified using Tecan Infinite M1000 Pro for cell viability determination.
as §1

[5] = tested on: multiple myeloma cell line U266B1; test: U266 Cell Viability Assay; assay type: cell-based; conditions: Homo sapiens; for pEC50: U-266, U266B1 cells, 48 hours, Celltiter-Glo, read-out: 48 hr U266 Viability Celltiter-Glo: Mean EC50
Method: The human multiple myeloma cell line U266B1 was cultured in RPMI 1640 media supplemented with 10% fetal bovine serum, 2 mM Glutamine, and 1× Penicillin/Streptomycin. Cells were plated in 384-well tissue culture plates and treated with compound dilutions in DMSO/media. Plates were incubated at 37° C., 5% CO2 for 48 hours. After 48 hours, Celltiter-Glo® (Promega) was added to each well and luciferase signal was quantified using Tecan Infinite M1000 Pro for cell viability determination.
as §1

[6] = Liver Microsome Stability Assay, mouse; assay type: in vitro ADME; conditions: mouse liver microsomes 1.0 mg/mL, 1.0 uM compound, 37° C., 1 mM NADPH
Method: (§2) Stability of a compound was assessed in the presence of liver microsomes from various sources—mouse, rat, monkey and human liver microsomes. 1.0 uM compound, 0.4% DMSO in 0.1 M Potassium Phosphate with 1.0 mg/mL liver microsomes, were incubated at 37° C. with or without 1 mM NADPH. The samples were quenched at 0, and 30 minutes.

[7] = Liver Microsome Stability Assay, rat; assay type: in vitro ADME; conditions: rat liver microsomes 1.0 mg/mL, 1.0 uM compound, 37° C., 1 mM NADPH
Method: as §2

[8] = Liver Microsome Stability Assay, monkey; assay type: in vitro ADME; conditions: monkey liver microsomes 1.0 mg/mL, 1.0 uM compound, 37° C., 1 mM NADPH
Method: as §2

[9] = Liver Microsome Stability Assay, human; assay type: in vitro ADME; conditions: human liver microsomes 1.0 mg/mL, 1.0 uM compound, 37° C., 1 mM NADPH
Method: as §2

[10] = Flp-In 293 T-REx cells, 24 hours with doxycycline; Table 1; read-out: 24 hr Dox Inducible PD1ssGluc 293FRT/TO: Mean IC50
[11] = Flp-In 293 T-REx cells, 24 hours with doxycycline; Table 1; read-out: 24 hr Dox Inducible IL2FLGluc 293FRT/TO: Mean IC50
[12] = ratio of IC50s IL2/PD1; Table 1
[13] = Flp-In 293 T-REx cells, 24 hours with doxycycline; Table 1; read-out: 24 hr Dox Inducible CD47(ss + 10)Gluc 293FRT/TO: Mean IC50
[14] = Flp-In 293 T-REx cells, 24 hours with doxycycline; Table 1; read-out: 24hr Dox Inducible IL6R(ss + 10)Gluc 293FRT/TO: Mean IC50
[15] = ratio of IC50s IL6R/PD1; Table 1
[16] = Homo sapiens, NCI-H929 cells, 48 hours, Celltiter-Glo

| Compound | pIC50 [1, 10] | pIC50 [2, 11] | pIC50 (CD47(ss + 10)Gluc; [13]) | pIC50 [3, 14] | pEC50 [4, 16] | pEC50 [5] | Liver Microsome Stability (Multiple Species): Mouse - % Remaining after 30 min w/ NADPH (%) [6] | Liver Microsome Stability (Multiple Species): Rat - % Remaining after 30 min w/ NADPH (%) [7] | Liver Microsome Stability (Multiple Species): Monkey - % Remaining after 30 min w/ NADPH (%) [8] | Liver Microsome Stability (Multiple Species): Human - % Remaining after 30 min w/ NADPH (%) [9] | 48 hr H929 Viability Celltiter-Glo: Mean EC50 (nM) ([4]; NCI-H929 cells, 48 hours, Celltiter-Glo) | 24 hr Dox Inducible IL2FLGluc 293FRT/TO: IL2/PD1 [2, 12] | 24hr Dox Inducible IL6R(ss + 10)Gluc 293FRT/TO: IL6R/PD1 [3, 15] | pIC50 ([1]; read-out: 24 hr Dox Inducible PD1ssGluc 293FRT/TO: Mean IC50; Flp-In 293 T-REx cells, 24 hours with doxycycline; Table 1) | pIC50 ([2]; read-out: 24 hr Dox Inducible IL2FLGluc 293FRT/TO: Mean IC50; Flp-In 293 T-REx cells, 24 hours with doxycycline; Table 1) | pIC50 (CD47(ss + 10)Gluc; read-out: 24 hr Dox Inducible CD47(ss + 10)Gluc 293FRT/TO: Mean IC50; Flp-In 293 T-REx cells, 24 hours with doxycycline; Table 1) | pIC50 ([3]; read-out: 24hr Dox Inducible IL6R(ss + 10)Gluc 293FRT/TO: Mean IC50; Flp-In 293 T-REx cells, 24 hours with doxycycline; Table 1) | EC50 ([4]; Homo sapiens, NCI-H929, 48 h, read-out: 48 hr H929 Viability Celltiter-Glo: Mean EC50 (nM)) | EC50 ([5]; U-266, 48 h, read-out: 48 hr U266 Viability Celltiter-Glo: Mean EC50 (nM)) |
| --- | --- | --- | --- | --- | --- | --- | --- | --- | --- | --- | --- | --- | --- | --- | --- | --- | --- | --- | --- |
| O=C(Nc1nc(/C=C/c2ncn(C3CC3)c2Cl)cs1)c1cc(SC(F)(F)F)cn1Cc1ccnc(F)c1 [Compound A31, (E)-N-(4-(2-(5-chloro-1-cyclopropyl-1H-imidazol-4-yl)vinyl)thiazol-2-yl)-1-((2-fluoropyridin-4-yl)methyl)-4-((trifluoromethyl)thio)-1H-pyrrole-2-carboxamide] | 8.40 | < 4.60 | 5.66 | 5.90 | 4.64 | < 4.60 | 82% | 65% | 25% | 10% | – | >6300 | 317 | – | – | – | – | – | – |
| CC(C(F)F)n1cnc(/C=C/c2csc(NC(=O)c3cc(Cl)cn3Cc3ccnc(F)c3)n2)c1 (stereo not drawn) [Compound A4, (E)-4-chloro-N-(4-(2-(1-(1,1-difluoropropan-2-yl)-1H-imidazol-4-yl)vinyl)thiazol-2-yl)-1-((2-fluoropyridin-4-yl)methyl)-1H-pyrrole-2-carboxamide] | – | – | – | – | – | – | 80% | 73% | 4% | 3% | – | 21 | 11 | 6.22 | 4.90 | 5.21 | 5.17 | > 23300 nM | > 25000 nM |
| O=C(Nc1nc(/C=C/c2ncn(C3CC3)c2Cl)cs1)c1cc(OC(F)F)cn1Cc1ccnc(F)c1 [Compound A15, (E)-N-(4-(2-(5-chloro-1-cyclopropyl-1H-imidazol-4-yl)vinyl)thiazol-2-yl)-4-(difluoromethoxy)-1-((2-fluoropyridin-4-yl)methyl)-1H-pyrrole-2-carboxamide] | 8.22 | 5.53 | 5.49 | 5.68 | – | < 4.60 | 100% | 55% | 57% | 73% | I.A | 490 | 345 | – | – | – | – | – | – |
| Cc1c(Cn2cc(OC(F)F)cc2C(=O)Nc2nc(/C=C/c3ncn(C4CC4)c3Cl)cs2)ccnc1F [Compound A23, (E)-N-(4-(2-(5-chloro-1-cyclopropyl-1H-imidazol-4-yl)vinyl)thiazol-2-yl)-4-(difluoromethoxy)-1-((2-fluoro-3-methylpyridin-4-yl)methyl)-1H-pyrrole-2-carboxamide] | 7.43 | < 4.60 | < 4.60 | < 4.60 | < 4.60 | < 4.60 | 55% | 31% | 8% | 20% | – | >540 | >680 | – | – | – | – | – | – |

The next lines start with results.

| pIC50 [1, 10] | pIC50 [2, 11] | pIC50 (CD47(ss + 10)Gluc; [13]) | pIC50 [3, 14] | pEC50 [4, 16] | pEC50 [5] | Liver Microsome Stability (Multiple Species): Mouse - % Remaining after 30 min w/ NADPH (%) [6] | Liver Microsome Stability (Multiple Species): Rat - % Remaining after 30 min w/ NADPH (%) [7] | Liver Microsome Stability (Multiple Species): Monkey - % Remaining after 30 min w/ NADPH (%) [8] | Liver Microsome Stability (Multiple Species): Human - % Remaining after 30 min w/ NADPH (%) [9] | 48 hr H929 Viability Celltiter-Glo: Mean EC50 (nM) ([4]; NCI-H929 cells, 48 hours, Celltiter-Glo) | Compound | 24 hr Dox Inducible IL2FLGluc 293FRT/TO: IL2/PD1 [2, 12] | 24hr Dox Inducible IL6R(ss + 10)Gluc 293FRT/TO: IL6R/PD1 [3, 15] | pIC50 ([1]; read-out: 24 hr Dox Inducible PD1ssGluc 293FRT/TO: Mean IC50; Flp-In 293 T-REx cells, 24 hours with doxycycline; Table 1) | pIC50 ([2]; read-out: 24 hr Dox Inducible IL2FLGluc 293FRT/TO: Mean IC50; Flp-In 293 T-REx cells, 24 hours with doxycycline; Table 1) | pIC50 (CD47(ss + 10)Gluc; read-out: 24 hr Dox Inducible CD47(ss + 10)Gluc 293FRT/TO: Mean IC50; Flp-In 293 T-REx cells, 24 hours with doxycycline; Table 1) | pIC50 ([3]; read-out: 24hr Dox Inducible IL6R(ss + 10)Gluc 293FRT/TO: Mean IC50; Flp-In 293 T-REx cells, 24 hours with doxycycline; Table 1) | EC50 ([4]; Homo sapiens, NCI-H929, 48 h, read-out: 48 hr H929 Viability Celltiter-Glo: Mean EC50 (nM)) | EC50 ([5]; U-266, 48 h, read-out: 48 hr U266 Viability Celltiter-Glo: Mean EC50 (nM)) |
| --- | --- | --- | --- | --- | --- | --- | --- | --- | --- | --- | --- | --- | --- | --- | --- | --- | --- | --- | --- |
| 8.05 | 5.81 | 5.82 | 5.88 | 5.08 | 4.80 | 5% | 33% | <1% | <1% | – | CC(C)n1cnc(/C=C/c2csc(NC(=O)c3cccn3Cc3ccnc(F)c3)n2)c1C#N [Compound B20, (E)-N-(4-(2-(5-cyano-1-isopropyl-1H-imidazol-4-yl)vinyl)thiazol-2-yl)-1-((2-fluoropyridin-4-yl)methyl)-1H-pyrrole-2-carboxamide] | 170.0 | 146 | – | – | – | – | – | – |
| 6.76 | 5.96 | 6.00 | 5.92 | 4.82 | < 4.60 | 72% | 39% | 22% | 70% | – | O=C(Nc1nc(/C=C/c2cccc(F)c2)cs1)c1cccn1Cc1ccnc(F)c1 [Compound B28, (E)-1-((2-fluoropyridin-4-yl)methyl)-N-(4-(3-fluorostyryl)thiazol-2-yl)-1H-pyrrole-2-carboxamide] | 6.1 | 7 | – | – | – | – | – | – |
